Assay results from patent US8901118B2, “Compounds and methods for kinase modulation, and indications therefor” (Plexxikon Inc., priority 2010, dated 2014).

Columns and labels:
BCR-FMS BaF3 cells = experiment: Splenomegaly mouse model, BCR-FMS BaF3 cells; type: in vivo
Procedure, shortened: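 Female nu/nu mice given 5×10^6 engineered BaF3 cells i.v. on day 1; compound in 1.0% Polysorbate 80/0.5% HPMC/2.5% DMSO dosed orally once (sometimes twice) daily, days 10-18. Spleens weighed 4 h after final dose; % spleen growth inhibition calculated versus vehicle control.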

BCR-TRK2 BaF3 cells = experiment: Splenomegaly mouse model, BCR-TRK2 BaF3 cells; type: in vivo
Method: (§1) BaF3 cells are engineered with any of BCR-FMS, BCR-TRK1 or BCR-TRK2 to assess in vivo inhibitory effects of Fms, TrkA or TrkB inhibition, respectively. BaF3 cells are maintained in growth media (RPMI containing 10% FBS, 1% PenStrep, 1% NEAA, and 1% L-Glutamine, supplemented with 5% murine IL-3 and 1 mg/mL G418). Four days prior to start, 2×10^6 cells are inoculated into a T150 vented flask using the growth media and incubated at 37° C. in 5% CO2 for three days. One day prior to start, cells are collected by centrifugation and are suspended in growth media without IL-3. On the day of cell implant, the cells are collected by centrifugation, rinsed 3×20 mL with RPMI, then are suspended in 5.4 mL of media and counted, then adjusted with additional RPMI as needed to give 5×10^7 cells/mL. On day 1, female nu/nu mice at 5-6 weeks of age are injected intravenously with BaF3 cells injected injecting 0.1 mL (5×10^6) cells in the tail vein (mice without cell injected are included as control group). Compound stocks in dimethylsulfoxide are stored at room temperature protected from light. Stocks are diluted prior to dosing, diluting 22 μL of compound stock into 858 μL of diluent (or 50 μL into 1950 μL) to provide vehicle of 1.0% Polysorbate 80, 0.5% hydroxypropyl methyl cellulose, with final dimethylsulfoxide at 2.5% in all dosing suspensions and vehicle control. Dosing suspension is prepared prior to use, mixing by inversion and sonication in a water bath to make a uniform suspension. On days 10-18, mice are treated with vehicle only or the desired level of compound in vehicle, ˜0.2 mL per 25 gm mouse, once a day by oral gavage, or in some instances, twice per day. On day 18, mice are administered a final dose and two hours later a plasma sample is taken. At four hours following the final dose, mice are sacrificed, an additional plasma sample is collected and mouse spleens are removed and weighed. The average spleen weight of vehicle control group mice is compared to the average spleen weight of the test compound mice. Percent spleen growth inhibition is calculated as 100×[(spleen weight vehicle control-spleen weight test compound)/spleen weight vehicle control]. In some instances, the compounds were not tested in all of the assays as indicated by NA in the table below.

[1] = Relative solubility by turbidity in aqueous buffers (pH 1.5, 4.5, 6.8, 7.4); type: physicochemical; conditions: for turbidity threshold (L, M, H) 1.4: pH 1.5 (SGF); for turbidity threshold (L, M, H) 4.5: pH 4.5 (SIF); for turbidity threshold (L, M, H) 6.8: pH 6.8 (SIF); for turbidity threshold (L, M, H) 7.4: pH 7.4 (HEPES)
Procedure, shortened: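 Twofold DMSO dilutions of a 25 mM stock were spiked into SGF (0.5M NaCl, pH 1.5), SIF (0.05M NaH2PO4, pH 4.5 and 6.8) or HEPES buffer (10 mM HEPES, 150 mM NaCl, pH 7.4). Absorbance was read at 490, 535 and 650 nm. The endpoint is the concentration crossing O.D. 0.01, averaged across wavelengths.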

TrkC kinase = TrkC kinase (Homo sapiens, UniProt Q16288); experiment: TrkC kinase biochemical activity assay (similar to TrkA assay); conditions: read-out: Biochemical Inhibition IC50 TrkC
Method: In one assay the biochemical activity IC50 values are determined with respect to inhibition of TrkA kinase activity, where inhibition of phosphorylation of a peptide substrate is measured as a function of compound concentration. Compounds to be tested, dissolved in DMSO (1 μL), are added to a white 384-well plate (Costar #3705). Working stocks of TrkA kinase (UBI), biotin-(E4Y)10 substrate (Upstate Biotech, Cat#12-440), and ATP (Sigma, Cat#A-3377) are prepared in 25 mM Hepes pH 7.5, 10 mM MnCl2, 1 mM DTT, 0.01% BSA, and 0.01% Tween-20. All components are added to the 384-well plate for a final concentration of 1 ng/well TrkA, 30 nM biotin-(E4Y)10 and 100 μM ATP in a volume of 20 μL. Each sample is at 5% DMSO. The plate is shaken for 1 minute at 1200 rpm, spun for 1 minute at 1000 rpm, then incubated for 40 minutes at room temperature. Just before use, working stocks of donor and acceptor beads from the AlphaScreen PY20 Detection Kit (PerkinElmer, Cat#676601M) are prepared in 25 mM Hepes pH 7.5, 100 mM EDTA. 0.01% BSA. Donor Beads solution (Streptavidin beads) is added (5 μL) to each well to final bead concentration of 10 μg/mL. The plate is incubated at room temperature for 20 minutes. Acceptor Beads solution (PY20 coated beads) are then added to each well (5 μL) to a final concentration of bead at 10 μg/mL. The plates are incubated at room temperature for 60 minutes. Fluorescence signal is recorded on the Envision reader. Phosphorylated substrate results in binding of the PY20 antibody and association of the donor and acceptor beads such that signal correlates with kinase activity. The signal vs. compound concentration is used to determine the IC50. Similar assays are used for TrkB and Trk C kinase.

BCR-TRK1 BaF3 cells = experiment: Splenomegaly mouse model, BCR-TRK1 BaF3 cells; type: in vivo
Method: as §1, with “The average spleen weight of vehicle control group mice is compared to the average spleen weight of the test compound mice.” left out, “In some instances, the compounds were not tested in all of the assays as indicated by NA in the table below.” left out

[2] = dosed once per day at 10 mg per kg

Chain of TrkC kinase (Q16288 32-839): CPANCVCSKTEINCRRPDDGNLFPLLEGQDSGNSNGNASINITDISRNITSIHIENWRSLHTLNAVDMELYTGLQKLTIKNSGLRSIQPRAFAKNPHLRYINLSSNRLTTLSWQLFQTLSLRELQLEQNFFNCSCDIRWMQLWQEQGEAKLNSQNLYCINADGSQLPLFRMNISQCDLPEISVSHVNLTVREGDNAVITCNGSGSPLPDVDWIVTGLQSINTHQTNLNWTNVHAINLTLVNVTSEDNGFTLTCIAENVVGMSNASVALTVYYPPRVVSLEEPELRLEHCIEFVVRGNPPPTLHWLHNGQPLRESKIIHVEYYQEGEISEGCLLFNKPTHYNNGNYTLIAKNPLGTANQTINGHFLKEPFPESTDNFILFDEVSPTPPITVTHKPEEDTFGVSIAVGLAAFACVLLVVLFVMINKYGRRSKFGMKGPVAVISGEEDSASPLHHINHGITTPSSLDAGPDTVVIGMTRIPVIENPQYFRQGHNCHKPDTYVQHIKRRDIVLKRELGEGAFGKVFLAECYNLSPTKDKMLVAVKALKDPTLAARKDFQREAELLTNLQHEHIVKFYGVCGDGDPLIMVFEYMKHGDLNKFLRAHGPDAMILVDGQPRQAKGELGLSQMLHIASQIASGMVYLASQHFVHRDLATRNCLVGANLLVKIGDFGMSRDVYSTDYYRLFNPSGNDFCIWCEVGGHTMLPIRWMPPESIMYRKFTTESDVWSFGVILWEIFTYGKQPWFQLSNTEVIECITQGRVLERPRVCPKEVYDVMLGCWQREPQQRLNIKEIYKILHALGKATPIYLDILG

| IC50 (TrkC kinase) [nM] | Compound | % spleen growth inhibition, Fms (BCR-FMS BaF3 cells; [2]) [%] | % spleen growth inhibition, TrkB (BCR-TRK2 BaF3 cells; [2]) [%] | turbidity threshold (L, M, H) 1.4 [1] | turbidity threshold (L, M, H) 4.5 [1] | turbidity threshold (L, M, H) 6.8 [1] | turbidity threshold (L, M, H) 7.4 [1] | % spleen growth inhibition, Fms (BCR-FMS BaF3 cells; dosed at 30 mg/kg) [%] | % spleen growth inhibition, TrkA (BCR-TRK1 BaF3 cells; dosed at 30 mg/kg) [%] | % spleen growth inhibition, TrkA (BCR-TRK1 BaF3 cells; [2]) [%] | % spleen growth inhibition, TrkB (BCR-TRK2 BaF3 cells; dosed at 30 mg/kg) [%] |
| --- | --- | --- | --- | --- | --- | --- | --- | --- | --- | --- | --- |
| – | COc1ccc(Nc2ccc(C(=O)c3c[nH]c4ncnc(C5CC5)c34)c(F)n2)cn1 [Compound P-4022, (4-cyclopropyl-7H-pyrrolo[2,3-d]pyrimidin-5-yl)-[2-fluoro-6-(6-methoxy-pyridin-3-ylamino)-pyridin-3-yl]-methanone] | 42 | 33 | H (high solubility if the threshold concentration is >250 μm) | M (moderate solubility if the threshold concentration is 31.3 μM to 250 μM) | L (low solubility if the threshold concentration is <31.3 μM) | L (low solubility if the threshold concentration is <31.3 μM) | – | – | – | – |
| < 100 | COc1ccc(Nc2ccc(Cc3c[nH]c4ncc(C)cc34)c(F)n2)cn1 [Compound P-3019, [6-fluoro-5-(5-methyl-1H-pyrrolo[2,3-b]pyridin-3-ylmethyl)-pyridin-2-yl]-(6-methoxy-pyridin-3-yl)-amine] | 40 | 14 | H (high solubility if the threshold concentration is >250 μm) | L (low solubility if the threshold concentration is <31.3 μM) | L (low solubility if the threshold concentration is <31.3 μM) | L (low solubility if the threshold concentration is <31.3 μM) | – | – | – | – |
| – | CCc1ccc(Nc2ccc(Cc3c[nH]c4ncnc(OC)c34)c(F)n2)cn1 [Compound P-4007, (6-Ethyl-pyridin-3-yl)-[6-fluoro-5-(4-methoxy-7H-pyrrolo[2,3-d]pyrimidin-5-ylmethyl)-pyridin-2-yl]-amine] | 28 | 19 | M (moderate solubility if the threshold concentration is 31.3 μM to 250 μM) | L (low solubility if the threshold concentration is <31.3 μM) | L (low solubility if the threshold concentration is <31.3 μM) | L (low solubility if the threshold concentration is <31.3 μM) | – | – | – | – |
| – | COc1ncnc2[nH]cc(Cc3ccc(Nc4ccc(C5CC5)nc4)nc3F)c12 [Compound P-4004, (6-Cyclopropyl-pyridin-3-yl)-[6-fluoro-5-(4-methoxy-7H-pyrrolo[2,3-d]pyrimidin-5-ylmethyl)-pyridin-2-yl]-amine] | 36 | 41 | M (moderate solubility if the threshold concentration is 31.3 μM to 250 μM) | M (moderate solubility if the threshold concentration is 31.3 μM to 250 μM) | L (low solubility if the threshold concentration is <31.3 μM) | L (low solubility if the threshold concentration is <31.3 μM) | 70 | 40 | 16 | 91 |
| – | CCOc1ccc(Nc2ccc(Cc3c[nH]c4ncnc(C)c34)c(F)n2)cn1 [Compound P-4006, (6-Ethoxy-pyridin-3-yl)-[6-fluoro-5-(4-methyl-7H-pyrrolo[2,3-d]pyrimidin-5-ylmethyl)-pyridin-2-yl]-amine] | 55 | 21 | H (high solubility if the threshold concentration is >250 μm) | L (low solubility if the threshold concentration is <31.3 μM) | L (low solubility if the threshold concentration is <31.3 μM) | L (low solubility if the threshold concentration is <31.3 μM) | – | – | – | – |
| < 1000 | COc1ccc(Nc2ccc(Cc3c[nH]c4ncnc(C)c34)c(F)n2)cn1 [Compound P-4002, [6-Fluoro-5-(4-methyl-7H-pyrrolo[2,3-d]pyrimidin-5-ylmethyl)-pyridin-2-yl]-(6-methoxy-pyridin-3-yl)-amine] | – | – | H (high solubility if the threshold concentration is >250 μm) | M (moderate solubility if the threshold concentration is 31.3 μM to 250 μM) | M (moderate solubility if the threshold concentration is 31.3 μM to 250 μM) | M (moderate solubility if the threshold concentration is 31.3 μM to 250 μM) | – | – | – | – |
| – | CCc1ccc(Nc2ccc(Cc3c[nH]c4ncnc(C5CC5)c34)c(F)n2)cn1 [Compound P-4028, [5-(4-Cyclopropyl-7H-pyrrolo[2,3-d]pyrimidin-5-ylmethyl)-6-fluoro-pyridin-2-yl]-(6-ethyl-pyridin-3-yl)-amine] | 86 | 88 | – | – | – | – | – | – | – | – |
| < 10 | COc1ccc(Nc2ccc(Cc3c[nH]c4ncnc(OC)c34)c(F)n2)cn1 [Compound P-4001, [6-Fluoro-5-(4-methoxy-7H-pyrrolo[2,3-d]pyrimidin-5-ylmethyl)-pyridin-2-yl]-(6-methoxy-pyridin-3-yl)-amine] | – | – | M (moderate solubility if the threshold concentration is 31.3 μM to 250 μM) | M (moderate solubility if the threshold concentration is 31.3 μM to 250 μM) | M (moderate solubility if the threshold concentration is 31.3 μM to 250 μM) | M (moderate solubility if the threshold concentration is 31.3 μM to 250 μM) | – | – | – | – |
| < 100 | CCOc1ccc(Nc2ncc(Cc3c[nH]c4ncc(C)cc34)cn2)cn1 [Compound P-3027, (6-Ethoxy-pyridin-3-yl)-[5-(5-methyl-1H-pyrrolo[2,3-b]pyridin-3-ylmethyl)-pyrimidin-2-yl]-amine] | 42 | 2 | – | – | – | – | – | – | – | – |
| – | Cc1ccc(Nc2ccc(Cc3c[nH]c4ncnc(C5CC5)c34)c(F)n2)cn1 [Compound P-4030, [5-(4-Cyclopropyl-7H-pyrrolo[2,3-d]pyrimidin-5-ylmethyl)-6-fluoro-pyridin-2-yl]-(6-methyl-pyridin-3-yl)-amine] | 58 | 50 | – | – | – | – | – | – | – | – |
